Results on 12 molecules are retold here after US4536578A, “1-[3-(6-Fluoro-1,2-benzisoxazol-3-yl)propyl]-4-(substituted)piperazines” (Hoechst-Roussel Pharmaceuticals Inc., priority 1982, dated 1985).

As a reminder, the ED50 is the midpoint of the dose-response relation.

Data set [1] has as its system spontaneous hypertensive rat. Put plainly: antihypertensive activity in the spontaneous hypertensive rat, indirect tail cuff method. It counts as in vivo. The conditions noted are these: 50 mg/kg of body wt, intraperitoneal, 3 days, measured on third day, group of 4 rats. The procedure:
According to this procedure, the test compound is administered intraperitoneally to a group of 4 rats for 3 days. The decrease in blood pressure is measured on the third day of administration.

Data set [2] deals with phenyl-para-quinone induced writhing. Kind of data set: phenyl-para-quinone writhing assay in mice (analgesia). The conditions noted are these: Mus musculus, sc, read-out: Analgesic Activity ED50 (dose at which 50% of the phenyl-para-quinone induced writhing is inhibited). The class given is in vivo. From the text: Exptl. Biol. Med., 95, 729 (1957)]. Presented in Table I is the analgesic effect of some of the compounds of the invention, expressed as the subcutaneous dose at which 50% of the phenyl-para-quinone induced writhing is inhibited in the animals, i.e., the ED50.
Background: Writhing tests count abdominal constrictions after an irritant is injected.

The test system of data set [3] is apomorphine-induced climbing. Put plainly: climbing mice assay (apomorphine-induced climbing). The class given is in vivo. The conditions noted are these: intraperitoneal 30 min before apomorphine 1.5 mg/kg s.c. On the procedure: The subject CK-1 male mice (23-27 grams) are group-housed under standard laboratory conditions. The mice are individually placed in wire mesh stick cages (4"×4" by 10") and are allowed one hour for adaptation and exploration of the new environment.
For evaluation of climbing, 3 readings are taken at 10, 20 and 30 minutes after apomorphine administration according to the following scale:
Mice consistently climbing before the injection of apormorphine will be discarded.
With full-developed apomorphine climbing, the animals are hanging onto the cage walls, rather motionless, over longer periods of time. By contrast, climbs due to mere motor stimulation usually only last a few seconds.
The climbing scores are individually totaled (maximal score: 6 per mouse over 3 readings) and the total score of the control group (vehicle intraperitoneally--apomorphine subcutaneously) is set to 100%.

In another data set the test system is conditioned avoidance. Put plainly: Sidman Avoidance Paradigm in squirrel monkeys. The conditions noted are these: Primates. The class given is in vivo, squirrel monkeys (Saimiri sciureus). From the text:
The subjects are male squirrel monkeys (Saimiri sciureus). They are housed in individual home cages in the animal quarters for at least six weeks prior to training. When they are not in the test chambers, the subjects are maintained in their home cages with water available ad libitum and food available twice daily.
The apparatus consists of test cages (BRS/LVE) with a single lever and house-light. This is enclosed in a sound-attenuating chamber (BRS/LVE) with fan and the chambers are in an isolated room equipped with a speaker emitting a white-noise auditory background. The test cages have a grid floor of steel bars which are attached to a scrambled shock source (Coulbourn Instruments). The house-lights, shockers and response levers are controlled by BRS/LVE electromechanical timer and controls. The records of responses and shocks are recorded on Coulbourn print-out counters and Gerbrands cumulative recorders.
The monkeys are trained to avoid an unsignaled shock by repetitive lever-pressing responses. A shock (1.0 mA for 0.5 seconds) is delivered to the grid floor every 20 seconds if no responses are made (shock-shock interval of 20 seconds: SS-20"). A lever-press (response) will delay the oncoming shock for 20 seconds (Response-Shock interval of 20 seconds: RS-20").
Every 15 minutes the total number of shocks received and the total number of responses made are accumulated and constitute the basic data. The animals are trained until they maintain a stable response-rate and are receiving no more than 50 shocks per 4 hour test session. After reaching these criteria of performance, experimental compounds are administered and their effects on the performance of this learned avoidance behavior are evaluated.
The drug's effect on performance of each animal is compared to the performance data generated in the previous non-drug session. Each animal thereby serves as its own control. The basic measures of performance during a specific time interval, responses and shocks, are used for evaluation. Responses are reported both as totals and as percent of control responses. Shocks are reported as totals and as shock-avoided (SHA) as percent of control. This latter measure is computed by subtracting the number of shocks received from the total number of possible shocks if no responses are made.
However, an ED50 may be estimated during a representative time of peak activity.

Data set [4] concerns extrapyramidal symptomatology. The conditions noted are these: monkey, in vivo, po.
Description: Adult male squirrel monkeys (Saimiri sciurens) are housed in individual home cages and fed twice daily with water available "ad libitum" when they are not in the test chambers.
On the test day, drugs are administered by oral intubation immediately prior to testing in volumes of 1.0 cc/kg of body weight. The compounds are dissolved in distilled water or suspended with the addition of one drop of Tween-80 per 10 cc of solution.
After dosing, the monkeys are placed in observation chambers in an isolated room. Two experienced investigators observe the monkeys for dyskinetic symptomatology at 2, 4 and 6 hours postdose. They score the monkeys for the following specific dyskinetic symptomatology:
Circling--when the monkey rapidly circles the cage floor
"Duck walk"--when the monkey walks in a seated position with arms curled and held tightly to his side
Limb extension--an abnormal, prolonged extension of one or more limbs, similar to but of longer duration than a stretching motion
Pushing--the monkey will push against the cage wall with his head or body, frequently at the end of a circling episode
Writhing--slow, writhing movements of the whole body frequently in conjunction with a pushing episode
Oral dyskinesias--chewing, gnawing and abnormal tongue protrusions
The following scoring index is used in order to quantify the severity of symptoms:
Where [5] appears, read: squirrel monkeys, oral intubation immediately prior to testing, avoidance response, read-out: Antipsychotic Activity, Avoidance Response ED50.
Setting [6] is: squirrel monkeys, oral intubation immediately prior to testing, escape response, read-out: Antipsychotic Activity, Escape Response ED50.

Molecules are shown by their SMILES. Structures can show the parent of a compound that is named as a salt. Where two headings read alike, the source gives them in different places.

For `Cc1ccccc1N1CCN(CCCc2noc3cc(F)ccc23)CC1` [Example 6, 1-[3-(6-Fluoro-1,2-benzisoxazol-3-yl)propyl]-4-(2-methylphenylpiperazine oxalate], the “Blood Pressure Decrease (mean arterial blood pressure)” value (“Blood Pressure Decrease” below) in data set [1] amounted to 33 mm/mercury.
As for `Cl.Fc1ccc2c(CCCN3CCN(c4ccccc4Cl)CC3)noc2c1` [Example 4, 4-(2-Chlorophenyl)-1-[3-(6-fluoro-1,2-benzisoxazol-3-yl)propyl]piperazine hydrochloride], the “Blood Pressure Decrease” value in data set [1] is 55 mm/mercury.
`Cl.Fc1ccc2c(CCCN3CCN(c4cccc(C(F)(F)F)c4)CC3)noc2c1` [Example 5, 1-[3-(6-Fluoro-1,2-benzisoxazol-3-yl)propyl]-4-(3-trifluoromethylphenyl)piperazine hydrochloride]: the “Blood Pressure Decrease” value in data set [1] is recorded as 66 mm/mercury.
With `COc1ccccc1N1CCN(CCCc2noc3cc(F)ccc23)CC1` [Example 1, 1-[3-(6-Fluoro-1,2-benzisoxazol-3-yl)propyl]-4-(2-methoxyphenyl)piperazine dihydrochloride], the ED50 in data set [2] (mice, subcutaneous) came to 5.2 mg/kg; in the data set on conditioned avoidance (setting [5]) it was 2.9 mg/kg; in the data set with conditioned avoidance (setting [6]), 4.8 mg/kg; in the data set on conditioned avoidance (squirrel monkeys, oral, printed as dose with * in Table V, read-out: ED50 value in the Sidman Avoidance Paradigm in squirrel monkeys (footnote * to Table V)), 3.5 mg/kg. Further, the “Antipsychotic Activity (% decrease in climbing score)” value in data set [3] (dose 4.1 mg/kg of body wt) turned out to be 50%. Further, the “% Monkeys showing extrapyramidal symptoms” value is listed as 0% in data set [4] (3.5 mg/kg), 0% in data set [4] (5 mg/kg) and 66% in data set [4] (10 mg/kg).
For `O=C(CCCN1CCC(O)(c2ccc(Cl)cc2)CC1)c1ccc(F)cc1` [haloperidol], the “Antipsychotic Activity (% decrease in climbing score)” value in data set [3] (dose 0.11 mg/kg of body wt) was 50%. For the same molecule, the ED50 in the data set with conditioned avoidance (po, read-out: Antipsychotic Activity, Avoidance Response ED50) was determined as 1.21 mg/kg; in the data set on conditioned avoidance (po, read-out: Antipsychotic Activity, Escape Response ED50) it was 1.27 mg/kg; with conditioned avoidance (po, read-out: ED50 value in the Sidman Avoidance Paradigm in squirrel monkeys (footnote * to Table V)), 1.3 mg/kg. Further, the “% Monkeys showing extrapyramidal symptoms” value in data set [4] (0.625 mg/kg) is given as 33%; in data set [4] (1.3 mg/kg), 100%.
As to `Fc1ccc2c(CCCN3CCN(c4ccccc4)CC3)noc2c1.O=C(O)C(=O)O` [Example 2, 1-[3-(6-Fluoro-1,2-benzisoxazol-3-yl)propyl]-4-phenylpiperazine oxalate], the ED50 in data set [2] (mice, subcutaneous) came to 1.8 mg/kg. In addition, the “Blood Pressure Decrease” value in data set [1] worked out at 38 mm/mercury. In addition, in data set [3] (dose 10 mg/kg of body wt), the “Antipsychotic Activity (% decrease in climbing score)” value was 31%.
For the molecule `CCC(=O)O[C@](Cc1ccccc1)(c1ccccc1)[C@H](C)CN(C)C` [propoxyphene, reference compound], in data set [2], the ED50 is 3.9 mg/kg.
For `CC(C)=CCN1CCC2(C)c3cc(O)ccc3CC1C2C` (centres unmarked) [pentazocine, reference compound], in data set [2], the ED50 came out at 1.3 mg/kg.
Take `Cl.Cl.Fc1ccc2c(CCCN3CCN(c4ccccn4)CC3)noc2c1` [Example 10, 1-[3-(6-Fluoro-1,2-benzisoxazol-3-yl)propyl]-4-(2-pyridyl)piperazine dihydrochloride]: the median effective dose (ED50) in data set [2] (mice, subcutaneous) was 0.8 mg/kg. Moreover, in data set [1], the “Blood Pressure Decrease” value is reported as 66 mm/mercury. The “Antipsychotic Activity (% decrease in climbing score)” value in data set [3] (dose 10 mg/kg of body wt) was 31%.
On to `CSc1ccc2c(c1)N(CCC1CCCCN1C)c1ccccc1S2` (centres unmarked) [thioridazine], for which, in data set [3] (dose 3.5 mg/kg of body wt), the “Antipsychotic Activity (% decrease in climbing score)” value was determined as 50%. For the same molecule, the ED50 in the data set with conditioned avoidance (setting [5]) worked out at 2.6 mg/kg; in the data set with conditioned avoidance (setting [6]) it was 3.5 mg/kg. For the same molecule, the “% Monkeys showing extrapyramidal symptoms” value in data set [4] (3.5 mg/kg) and in data set [4] (7 mg/kg) was 100% each time.
For the molecule `Fc1ccc(N2CCN(CCCc3noc4cc(F)ccc34)CC2)cc1.O=C(O)C(=O)O` [Example 3, 1-[3-(6-Fluoro-1,2-benzisoxazol-3-yl)propyl]-4-(4-fluorophenyl)piperazine oxalate], the “Blood Pressure Decrease” value in data set [1] turned out to be 33 mm/mercury.
For `N=C(N)NCCN1CCCCCCC1` [guanethidine, reference compound], the “Blood Pressure Decrease” value in data set [1] is 20 mm/mercury.
